The compounds below were run against T1, Tumor necrosis factor (Mus musculus) (UniProt P06804) (assay: Inhibition of TNFalpha in LPS-stimulated mouse RAW264.7 cells at 10 uM after 2 hrs treated after 14 hrs of LPS challenge by FACS analysis).
T1 sequence (whole entry): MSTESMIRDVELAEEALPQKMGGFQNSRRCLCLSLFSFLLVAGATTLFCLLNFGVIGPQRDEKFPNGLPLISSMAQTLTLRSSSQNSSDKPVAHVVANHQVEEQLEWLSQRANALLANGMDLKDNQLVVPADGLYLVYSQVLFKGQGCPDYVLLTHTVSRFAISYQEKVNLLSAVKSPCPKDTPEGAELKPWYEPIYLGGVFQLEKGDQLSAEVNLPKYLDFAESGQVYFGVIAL
Assay type: cell-based

Compared with `NC(=O)c1cc(-c2csc(C3COc4ccccc4O3)n2)ccc1OCc1ccccc1` (stereo unspecified), `O=C1NC(=O)N(c2ccccc2)C(=O)/C1=C\c1ccccc1OCc1ccccc1Cl` is lower in inhibition: 52.6% for the first, 47.9% for the second.

First: c1ccc(-n2ncc3c(NCCN4CCCCC4)ncnc32)cc1
Second: O=c1cc(-c2ccccc2)oc2cc(O)c(O)c(O)c12
The inhibition of the first is lower: 45.8% for the first, 71.3% for the second.

First: Cc1cccc(N2C(=O)NC(=O)/C(=C/c3ccc(-c4ccc(C(=O)O)c(Cl)c4)o3)C2=O)c1
Second: O=C1NC(=O)N(c2ccc3c(c2)OCO3)C(=O)/C1=C\c1cn(Cc2ccccc2Cl)c2ccccc12
The inhibition of the first is higher: 64% for the first, 54.6% for the second.
